From PMC3898925 (Journal of Molecular Biology, 2010)

Legend:
WsaF [1] = biological target: T1, WsaF (Geobacillus stearothermophilus, UniProt Q7BG50, K78A/K79A/K81A); test: X-ray crystal structure of soaked complex, […] Å; format: binding; settings: crystal soaked 5 min in 20 mM dTDP-β-L-Rha; WsaFSER2 (b48 prints K78A/E79A/K81A); authors regard rhamnose ring position as incorrect
T1 construct: recombinant WsaF from pET28a-WsaF in E. coli BL21(DE3) Star; residues M1 to L413 mentioned

WsaF [2] = biological target: T2, WsaF (Geobacillus stearothermophilus, UniProt Q7BG50, E333A); test: isothermal titration calorimetry; format: binding; settings: 20 mM NaP pH 8.5, 50 mM NaCl, 20 °C; one-site model
T2 construct: recombinant WsaF from pET28a-WsaF in E. coli BL21(DE3) Star; residues M1 to L413 mentioned

WsaF [3] = biological target: T1, WsaF; test: X-ray crystal structure of soaked complex, […] Å; format: binding; settings: crystal soaked 5 min in 25 mM dTDP; surface entropy reduction mutant WsaFSER2 (b48 prints K78A/E79A/K81A)
WsaF [4] = biological target: T3, WsaF (Geobacillus stearothermophilus, UniProt Q7BG50, R254A); test: isothermal titration calorimetry; format: binding; settings: 20 mM NaP pH 8.5, 50 mM NaCl, 20 °C; one-site model
T3 construct: recombinant WsaF from pET28a-WsaF in E. coli BL21(DE3) Star; residues M1 to L413 mentioned

WsaF [5] = biological target: T4, WsaF (Geobacillus stearothermophilus, UniProt Q7BG50); test: isothermal titration calorimetry; format: binding; settings: 20 mM NaP pH 8.5, 50 mM NaCl, 20 °C; one-site model
T4 construct: recombinant WsaF from pET28a-WsaF in E. coli BL21(DE3) Star; residues M1 to L413 mentioned
T4 sequence (Q7BG50 1-413): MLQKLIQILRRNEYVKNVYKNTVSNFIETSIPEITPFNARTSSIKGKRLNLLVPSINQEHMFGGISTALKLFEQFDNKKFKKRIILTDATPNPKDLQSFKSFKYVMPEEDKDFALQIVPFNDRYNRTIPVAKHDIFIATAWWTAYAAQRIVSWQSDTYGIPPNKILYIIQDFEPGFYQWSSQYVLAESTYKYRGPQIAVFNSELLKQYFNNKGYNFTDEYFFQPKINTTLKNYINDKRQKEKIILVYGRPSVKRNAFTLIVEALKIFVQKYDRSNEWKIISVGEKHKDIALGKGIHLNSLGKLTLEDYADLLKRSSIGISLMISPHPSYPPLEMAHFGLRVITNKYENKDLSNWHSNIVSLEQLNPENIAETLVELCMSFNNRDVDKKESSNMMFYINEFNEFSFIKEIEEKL

[6] = biological target: the molecule itself; test: crystal structure; SeMet-labelled WsaF, space group P2_(1), two molecules in the asymmetric unit, 2.28 Å

T1 sequence (Q7BG50 entry or part of it K78A/K79A/K81A): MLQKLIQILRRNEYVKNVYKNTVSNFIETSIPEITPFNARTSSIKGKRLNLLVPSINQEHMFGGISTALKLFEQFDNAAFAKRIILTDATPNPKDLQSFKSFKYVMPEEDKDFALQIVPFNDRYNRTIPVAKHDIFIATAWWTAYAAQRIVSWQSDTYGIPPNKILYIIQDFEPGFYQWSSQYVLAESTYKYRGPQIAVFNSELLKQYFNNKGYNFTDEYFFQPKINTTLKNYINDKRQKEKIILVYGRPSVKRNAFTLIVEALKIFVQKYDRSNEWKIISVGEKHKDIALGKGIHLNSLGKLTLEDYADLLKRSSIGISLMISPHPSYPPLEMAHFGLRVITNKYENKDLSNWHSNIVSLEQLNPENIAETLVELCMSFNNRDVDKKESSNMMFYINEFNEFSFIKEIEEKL
T2 sequence (Q7BG50 entry or part of it E333A): as the sequence (Q7BG50 entry or part of it K78A/K79A/K81A) above, with A78K, A79K, A81K, E333A counted along it
T3 sequence (Q7BG50 entry or part of it R254A): as the sequence (Q7BG50 entry or part of it K78A/K79A/K81A) above, with A78K, A79K, A81K, R254A counted along it

Molecule: Cc1cn([C@H]2C[C@H](O)[C@@H](COP(=O)(O)OP(=O)(O)O[C@H]3O[C@@H](C)[C@H](O)[C@@H](O)[C@H]3O)O2)c(=O)[nH]c1=O [dTDP-β-L-rhamnose]
- X-ray crystal structure of soaked complex, 2.55 Å (WsaF [1]): The structures of the dTDP-WsaFSER2 and dTDP-β-L-Rha-WsaFSER2 complexes were obtained by soaking

Molecule: Cc1cn([C@H]2C[C@H](O)[C@@H](COP(=O)(O)OP(=O)(O)O)O2)c(=O)[nH]c1=O [dTDP]
- isothermal titration calorimetry (WsaF [2]): The mutant E333A showed a reduced binding affinity for dTDP
- X-ray crystal structure of soaked complex, 2.81 Å (WsaF [3]): The structures of the dTDP-WsaFSER2 and dTDP-β-L-Rha-WsaFSER2 complexes were obtained by soaking
- isothermal titration calorimetry (WsaF [4]): (ITC) of E333A and R254A showed weaker dTDP binding than native WsaF
- isothermal titration calorimetry (WsaF [5]): showed weaker dTDP binding than native WsaF, when qualitatively comparing the curves (Fig. S3)

B1: SeMet-labelled WsaF from Geobacillus stearothermophilus NRS 2004/3a (enzyme)
chain: MLQKLIQILRRNEYVKNVYKNTVSNFIETSIPEITPFNARTSSIKGKRLNLLVPSINQEHMFGGISTALKLFEQFDNKKFKKRIILTDATPNPKDLQSFKSFKYVMPEEDKDFALQIVPFNDRYNRTIPVAKHDIFIATAWWTAYAAQRIVSWQSDTYGIPPNKILYIIQDFEPGFYQWSSQYVLAESTYKYRGPQIAVFNSELLKQYFNNKGYNFTDEYFFQPKINTTLKNYINDKRQKEKIILVYGRPSVKRNAFTLIVEALKIFVQKYDRSNEWKIISVGEKHKDIALGKGIHLNSLGKLTLEDYADLLKRSSIGISLMISPHPSYPPLEMAHFGLRVITNKYENKDLSNWHSNIVSLEQLNPENIAETLVELCMSFNNRDVDKKESSNMMFYINEFNEFSFIKEIEEKL
modifications: selenomethionine (SeMet)-labelled
notes: WsaF, beta-1,2-rhamnosyltransferase of Geobacillus stearothermophilus NRS 2004/3a; the structure is described from M1 to L413 (M1-N25, Q58-G63 and N382-E389 with poor or no density); also called SeMet variant WsaF; SeMet-WsaF; source: E. coli BL21(DE3) Star, purified to homogeneity
- stoichiometry N [6]: 2
